# In article PMC7614683, “A small molecule PI3Kα activator for cardioprotection and neuroregeneration” (Nature, 2023):
# Where two headings read alike, the source gives them in different places.
# Tests used:
# Assay type in all cases: biochemical
# human p110α/p85α (PI3Kα) = target: T1, human p110α/p85α (PI3Kα) (Homo sapiens, UniProt P42336); assay: ADP-Glo in vitro lipid kinase assay, PI3Kα
# T1 construct: Full-length human p110α was expressed either in a complex with full-length human p85α (for HTS, biochemistry and HDX-MS); 6xHis tag followed by TEV protease site (N); host or cells: Spodoptera frugiperda Sf9, baculovirus
# Method: Kinase reactions were performed with ADP-Glo kinase assay kit (Promega Corporation). The enzyme, substrate and compounds were diluted in reaction buffer (20 mM HEPES, 50 mM NaCl, 50 mM KCl, 3 mM MgCl2, 1 mM EGTA, 1 mM TCEP, pH 7.4). Final concentrations of PI3Kα and PI3Kδ used were 25 nM and 50 nM for PI3Kβ. Liposomes (5% brain PI(4,5)P2, 20% brain phosphatidylserine, 45% brain phosphatidylethanolamine, 15% brain phosphatidylcholine, 10% cholesterol, 5% sphingomyelin (Avanti Polar Lipids)) were used at a final concentration of 1 mg/ml.
# For the HTS, the reaction mixture contained 0.75 μl enzyme, 15 nl compound and/or pY and 0.75 μl of liposome substrate mixed with ATP. […] (GL Biochem, Shanghai Ltd). ATP was used at a final concentration of 500 μM unless otherwise stated. The final DMSO concentration in the assay was 1%. The experiments were performed at room temperature for 3 h using 1536-well white-polystyrene plates (Corning #3729) before addition of 2 μl of ADP-Glo R1 to terminate the reaction. The plate was incubated for 40 min, followed by addition of 4 μl of ADP-Glo R2 and incubated further for 60 min in the dark. Luminescence was read using an EnVision (PerkinElmer) plate reader. All analyses were performed using Genedata Screener.
# For re-screening of HTS hits and routine compound profiling, the reaction mixture contained 2 μl PI3K enzyme, 2 μl compound and/or pY and 2 μl of liposome substrate mixed with ATP. ATP was used at a final concentration of 500 μM for PI3Kα and PI3Kβ and at 200 μM for PI3Kδ, unless otherwise stated. The final DMSO concentration in the assay was 1%. The experiments were performed at room temperature for 3 h using 384 white-polystyrene plates (Corning #3824) before addition of 6 μl of ADP-Glo R1 to terminate the reaction. The plate was incubated for 45 min, followed by addition of 12 μl of ADP-Glo R2 and incubated further for 60 min in the dark. Luminescence was read using a Sense (Hidex) plate reader. […] All analyses were performed using GraphPad Prism 7.
# For characterisation of the effects of 1938 on in vitro PI3K enzymology, all reactions were performed at room temperature with 384 white-polystyrene plates (Corning #3574). The final DMSO concentration in the assay was between 0.5%-1.8%. The reaction mixture contained 2 μl PI3K enzyme, 2 μl compound and/or pY and 2 μl of liposome substrate mixed with ATP. ATP was used at a final concentration of 200 μM, unless otherwise stated.
# CDK9/cyclin T1 = CDK9/cyclin T1 (Homo sapiens, UniProt P50750); assay: SelectScreen Adapta
# Method: (§1) 133 protein kinases and 7 lipid kinases were counterscreened, with 1938 used at 1 μM, using the Adapta, Lantha and Z-LYTE assays (SelectScreen Kinase Profiling Service; Thermofisher – experimental details of these assays can be found here: https://www.thermofisher.com/uk/en/home/industrial/pharma-biopharma/drug-discovery-development/target-and-lead-identification-and-validation/kinasebiology/kinase-activity-assays.html. The tree represention in KinMap[59] generated courtesy of Cell Signaling Technology, Inc. (www.cellsignal.com). mTORC1 (mTOR/RAPTOR/LST8) protein complex and ATM kinase and substrates were produced as previously described[57],[60]. Screening of 1938 was conducted using SuperSep Phos-Tag 50 μmol/l 100 x 100 x 6.6 mm 17-well (192-18001/199-18011) gels. For ATM assays, 100 nM ATM was incubated for 30 min at 30°C with 5 μM GST-p53 and 1 mM ATP, in the absence or presence of 200 μM 1938 in ATM Kinase Buffer (50 mM HEPES pH 7.5, 100 mM NaCl, 10% glycerol, 2 mM […], 5 mM MgCl2). As a positive control for ATM activation, the same reaction was carried out with 100 nM ATM/5 μM GST-p53/1 mM ATP in the presence of 100 nM Mre11-Rad50-Nbs1 (MRN) complex, a known activator of ATM[61]. For mTORC1 assays, 50 nM mTORC1 complex (mTOR/LST8/RAPTOR) was incubated for 3 h at 30°C with 15 μM 4E-BP1, 10 mM MgCl2 and 250 μM ATP, in the absence or presence of 200 μM 1938. As a ‘positive’ control, a higher concentration (150 nM) of mTORC1 complex (mTOR/LST8/RAPTOR) was incubated for 3 h at 30°C with 15 μM 4E-BP1, 10 mM MgCl2 and 250 μM ATP. Kinase reactions were quenched by addition of SDS-PAGE Loading Buffer (as per manufacturer’s instructions) and freezing at -20°C before being run on the Phos-tag gels at 150 V for 90 min. Gels were then stained using InstantBlue™ Coomassie, and quantified using BioRad Image Lab Software. Kinase assays were carried out in triplicate.
# IRAK1 = IRAK1 (Homo sapiens, UniProt P51617); assay: SelectScreen Adapta
# Method: as §1
# LRRK2 = LRRK2 (Homo sapiens, UniProt Q5S007); assay: SelectScreen Adapta
# Method: as §1
# PI4KB (PI4K beta) = PI4KB (PI4K beta) (Homo sapiens, UniProt Q9UBF8); assay: SelectScreen Adapta
# Method: as §1
# PIK3C2A (PI3K-C2 alpha) = PIK3C2A (PI3K-C2 alpha) (Homo sapiens, UniProt O00443); assay: SelectScreen Adapta
# Method: as §1
# PIK3C3 (hVPS34) = PIK3C3 (hVPS34) (Homo sapiens, UniProt Q8NEB9); assay: SelectScreen Adapta
# Method: as §1
# [1] = target: PIK3CD/PIK3R1 (p110 delta/p85 alpha) (Homo sapiens, UniProt O00329); assay: SelectScreen Adapta
# Method: as §1
# Sequence of PIK3CD/PIK3R1 (p110 delta/p85 alpha) (O00329 whole entry): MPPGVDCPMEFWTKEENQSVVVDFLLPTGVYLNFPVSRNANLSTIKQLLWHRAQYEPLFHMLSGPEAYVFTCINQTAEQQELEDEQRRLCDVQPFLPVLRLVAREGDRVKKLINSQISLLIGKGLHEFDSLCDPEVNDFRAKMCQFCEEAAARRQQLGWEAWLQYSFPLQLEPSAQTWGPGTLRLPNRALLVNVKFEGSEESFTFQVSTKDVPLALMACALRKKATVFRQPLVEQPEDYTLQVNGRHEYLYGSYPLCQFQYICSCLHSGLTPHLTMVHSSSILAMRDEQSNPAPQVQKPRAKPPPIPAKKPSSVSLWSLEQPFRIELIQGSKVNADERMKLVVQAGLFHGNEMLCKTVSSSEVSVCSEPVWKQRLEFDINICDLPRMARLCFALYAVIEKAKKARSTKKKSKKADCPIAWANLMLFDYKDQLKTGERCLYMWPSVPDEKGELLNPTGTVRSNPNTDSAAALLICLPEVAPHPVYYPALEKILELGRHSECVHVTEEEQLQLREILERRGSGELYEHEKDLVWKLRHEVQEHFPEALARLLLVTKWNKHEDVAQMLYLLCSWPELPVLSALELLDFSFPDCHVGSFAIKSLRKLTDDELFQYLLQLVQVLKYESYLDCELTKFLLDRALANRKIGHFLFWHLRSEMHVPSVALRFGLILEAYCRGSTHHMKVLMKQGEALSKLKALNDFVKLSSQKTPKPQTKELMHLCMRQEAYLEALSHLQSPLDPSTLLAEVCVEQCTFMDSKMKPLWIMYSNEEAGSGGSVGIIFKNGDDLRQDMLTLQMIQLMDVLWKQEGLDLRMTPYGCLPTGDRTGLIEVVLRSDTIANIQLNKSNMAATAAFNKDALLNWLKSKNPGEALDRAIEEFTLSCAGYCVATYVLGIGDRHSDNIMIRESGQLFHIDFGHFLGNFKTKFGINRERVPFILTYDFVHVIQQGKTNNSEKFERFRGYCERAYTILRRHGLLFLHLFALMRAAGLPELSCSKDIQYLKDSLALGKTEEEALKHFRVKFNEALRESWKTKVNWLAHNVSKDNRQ
# Sequence of PIK3CD/PIK3R1 (p110 delta/p85 alpha) (P27986 whole entry partner): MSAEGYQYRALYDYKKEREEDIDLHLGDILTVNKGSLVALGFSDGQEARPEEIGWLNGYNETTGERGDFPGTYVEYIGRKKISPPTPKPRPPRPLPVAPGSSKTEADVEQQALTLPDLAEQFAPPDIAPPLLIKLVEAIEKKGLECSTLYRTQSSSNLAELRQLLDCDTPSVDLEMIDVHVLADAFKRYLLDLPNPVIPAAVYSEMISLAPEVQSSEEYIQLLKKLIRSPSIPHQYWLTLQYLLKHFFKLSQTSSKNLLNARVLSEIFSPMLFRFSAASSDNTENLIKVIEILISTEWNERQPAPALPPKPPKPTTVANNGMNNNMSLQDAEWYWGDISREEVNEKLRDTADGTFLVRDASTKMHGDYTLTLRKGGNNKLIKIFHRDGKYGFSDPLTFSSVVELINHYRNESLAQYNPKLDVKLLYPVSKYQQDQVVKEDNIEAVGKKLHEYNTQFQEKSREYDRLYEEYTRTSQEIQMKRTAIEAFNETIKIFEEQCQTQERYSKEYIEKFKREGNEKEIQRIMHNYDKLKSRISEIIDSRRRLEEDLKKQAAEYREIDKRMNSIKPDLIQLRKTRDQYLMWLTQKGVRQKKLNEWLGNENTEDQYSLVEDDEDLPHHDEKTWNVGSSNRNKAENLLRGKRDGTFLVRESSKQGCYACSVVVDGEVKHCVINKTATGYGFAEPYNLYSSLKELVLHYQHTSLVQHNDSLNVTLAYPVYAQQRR
# Sequence of PI4KB (PI4K beta) (Q9UBF8 whole entry): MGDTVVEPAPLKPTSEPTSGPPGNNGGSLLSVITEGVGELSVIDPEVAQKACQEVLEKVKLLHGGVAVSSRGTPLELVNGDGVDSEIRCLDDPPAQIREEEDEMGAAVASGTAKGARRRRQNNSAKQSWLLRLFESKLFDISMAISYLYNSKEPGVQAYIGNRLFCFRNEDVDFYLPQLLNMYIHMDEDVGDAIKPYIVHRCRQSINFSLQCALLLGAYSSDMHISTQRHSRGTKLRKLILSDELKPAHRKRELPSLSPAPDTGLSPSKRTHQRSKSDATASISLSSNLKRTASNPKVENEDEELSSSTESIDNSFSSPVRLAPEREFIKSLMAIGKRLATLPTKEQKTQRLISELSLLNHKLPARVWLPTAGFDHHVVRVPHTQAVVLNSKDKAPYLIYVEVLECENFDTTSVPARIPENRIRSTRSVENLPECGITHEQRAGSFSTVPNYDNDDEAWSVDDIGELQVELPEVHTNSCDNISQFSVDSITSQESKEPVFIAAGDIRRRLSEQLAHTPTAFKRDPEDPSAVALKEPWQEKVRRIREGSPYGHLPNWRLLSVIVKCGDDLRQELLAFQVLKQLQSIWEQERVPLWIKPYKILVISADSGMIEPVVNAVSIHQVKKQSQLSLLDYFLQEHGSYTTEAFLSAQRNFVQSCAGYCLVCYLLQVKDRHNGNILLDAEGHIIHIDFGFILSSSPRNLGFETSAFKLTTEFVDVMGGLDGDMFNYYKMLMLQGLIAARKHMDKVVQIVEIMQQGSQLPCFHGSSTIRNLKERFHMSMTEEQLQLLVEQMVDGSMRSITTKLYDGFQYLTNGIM
# Sequence of LRRK2 (Q5S007 whole entry): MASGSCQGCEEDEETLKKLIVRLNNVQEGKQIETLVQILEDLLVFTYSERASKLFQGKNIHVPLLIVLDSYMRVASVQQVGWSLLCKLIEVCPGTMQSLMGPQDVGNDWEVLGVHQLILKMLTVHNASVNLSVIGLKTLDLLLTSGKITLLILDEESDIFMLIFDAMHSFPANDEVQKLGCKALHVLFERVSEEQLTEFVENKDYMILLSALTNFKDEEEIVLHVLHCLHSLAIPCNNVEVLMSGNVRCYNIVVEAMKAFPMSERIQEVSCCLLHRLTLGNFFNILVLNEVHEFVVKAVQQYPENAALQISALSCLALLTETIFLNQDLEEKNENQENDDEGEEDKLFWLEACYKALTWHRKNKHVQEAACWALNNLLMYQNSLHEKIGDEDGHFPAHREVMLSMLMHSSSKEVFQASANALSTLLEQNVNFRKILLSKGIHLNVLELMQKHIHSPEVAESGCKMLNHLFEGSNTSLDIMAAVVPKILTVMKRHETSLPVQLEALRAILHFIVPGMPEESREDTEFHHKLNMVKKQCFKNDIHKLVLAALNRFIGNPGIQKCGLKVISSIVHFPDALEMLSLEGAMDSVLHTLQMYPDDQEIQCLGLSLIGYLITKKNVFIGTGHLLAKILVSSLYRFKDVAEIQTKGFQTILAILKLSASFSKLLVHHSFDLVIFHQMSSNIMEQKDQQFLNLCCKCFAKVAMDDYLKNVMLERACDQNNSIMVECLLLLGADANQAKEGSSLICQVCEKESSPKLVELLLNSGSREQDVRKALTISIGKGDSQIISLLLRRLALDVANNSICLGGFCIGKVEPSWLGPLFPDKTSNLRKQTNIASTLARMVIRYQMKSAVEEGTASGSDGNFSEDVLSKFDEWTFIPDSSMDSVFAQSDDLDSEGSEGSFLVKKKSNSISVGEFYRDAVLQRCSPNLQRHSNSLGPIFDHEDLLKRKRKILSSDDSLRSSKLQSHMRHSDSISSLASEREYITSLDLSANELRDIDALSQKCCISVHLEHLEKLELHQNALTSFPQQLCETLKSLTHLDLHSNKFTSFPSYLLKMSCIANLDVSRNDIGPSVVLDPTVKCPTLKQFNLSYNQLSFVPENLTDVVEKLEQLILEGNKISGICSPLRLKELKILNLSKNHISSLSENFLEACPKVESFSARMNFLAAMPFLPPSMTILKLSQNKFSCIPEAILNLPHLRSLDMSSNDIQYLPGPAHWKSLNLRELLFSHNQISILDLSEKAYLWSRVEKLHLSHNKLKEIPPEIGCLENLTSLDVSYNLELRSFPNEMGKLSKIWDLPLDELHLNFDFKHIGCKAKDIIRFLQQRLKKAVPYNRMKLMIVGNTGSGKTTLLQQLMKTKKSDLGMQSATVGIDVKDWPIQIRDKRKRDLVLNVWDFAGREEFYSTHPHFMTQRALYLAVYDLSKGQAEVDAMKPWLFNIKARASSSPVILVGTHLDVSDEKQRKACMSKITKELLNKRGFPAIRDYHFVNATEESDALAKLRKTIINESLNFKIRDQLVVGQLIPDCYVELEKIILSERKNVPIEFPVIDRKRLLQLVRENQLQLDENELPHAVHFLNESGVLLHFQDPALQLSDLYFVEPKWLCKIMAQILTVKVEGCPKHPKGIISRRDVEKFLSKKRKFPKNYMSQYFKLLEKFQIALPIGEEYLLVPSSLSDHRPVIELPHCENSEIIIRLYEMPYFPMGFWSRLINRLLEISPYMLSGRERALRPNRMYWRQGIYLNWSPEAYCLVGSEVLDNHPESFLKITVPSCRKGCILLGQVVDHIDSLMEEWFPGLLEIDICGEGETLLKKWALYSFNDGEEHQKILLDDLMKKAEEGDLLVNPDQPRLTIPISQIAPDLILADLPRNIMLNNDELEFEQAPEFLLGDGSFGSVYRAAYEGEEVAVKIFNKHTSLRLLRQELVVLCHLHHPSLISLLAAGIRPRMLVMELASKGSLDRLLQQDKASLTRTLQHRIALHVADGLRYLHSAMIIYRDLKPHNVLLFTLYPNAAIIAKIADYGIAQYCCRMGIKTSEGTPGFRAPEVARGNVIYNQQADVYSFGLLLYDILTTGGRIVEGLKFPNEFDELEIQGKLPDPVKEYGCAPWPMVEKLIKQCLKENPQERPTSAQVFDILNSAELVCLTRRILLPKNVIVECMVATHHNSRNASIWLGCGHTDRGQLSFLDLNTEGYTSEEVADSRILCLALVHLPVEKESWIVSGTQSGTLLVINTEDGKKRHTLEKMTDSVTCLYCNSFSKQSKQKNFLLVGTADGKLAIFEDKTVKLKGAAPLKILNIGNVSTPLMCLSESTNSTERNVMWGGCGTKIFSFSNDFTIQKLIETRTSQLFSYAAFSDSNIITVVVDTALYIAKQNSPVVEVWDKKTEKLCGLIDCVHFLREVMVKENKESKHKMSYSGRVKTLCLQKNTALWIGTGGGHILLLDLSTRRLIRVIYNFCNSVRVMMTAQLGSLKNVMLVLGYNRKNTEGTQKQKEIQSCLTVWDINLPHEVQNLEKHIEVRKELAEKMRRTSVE
compound,measurement,setting,value
CCN1CCN(c2ccc(Nc3cc(Nc4cccc5c4N(C(C)=O)CC5)ccn3)cc2)CC1 [Compound 1938],activation of PI3Kα,human p110α/p85α (PI3Kα),activates
same,PI3Kα activation in combination with pY,human p110α/p85α (PI3Kα); 1938 with a saturating concentration of pY,synergistic PI3Kα activation
same,Maximum activity relative to 1938,human p110α/p85α (PI3Kα); SI Table 3,100%
same,EC50,"human p110α/p85α (PI3Kα); SI Table 3, 1938 analogues, read-out: EC50",58 ± 28 µM
same,EC50,human p110α/p85α (PI3Kα); read-out: EC50 for PI3Kα (in vitro lipid kinase activity),~60 µM
same,inhibition at 1 µM,CDK9/cyclin T1; read-out: % Inhibition Point 1,10%
same,inhibition at 1 µM,CDK9/cyclin T1; read-out: % Inhibition Point 2,2%
same,inhibition at 1 µM,CDK9/cyclin T1; read-out: % Inhibition mean,6%
same,inhibition at 1 µM,IRAK1; read-out: % Inhibition Point 1,29%
same,inhibition at 1 µM,IRAK1; read-out: % Inhibition Point 2,20%
same,inhibition at 1 µM,IRAK1; read-out: % Inhibition mean,25%
same,inhibition at 1 µM,LRRK2; read-out: % Inhibition Point 1,13%
same,inhibition at 1 µM,LRRK2; read-out: % Inhibition Point 2,18%
same,inhibition at 1 µM,LRRK2; read-out: % Inhibition mean,16%
same,inhibition at 1 µM,PI4KB (PI4K beta); read-out: % Inhibition Point 1,-1.1%
same,inhibition at 1 µM,PI4KB (PI4K beta); read-out: % Inhibition Point 2,0.786%
same,inhibition at 1 µM,PI4KB (PI4K beta); read-out: % Inhibition mean,-0.157%
same,inhibition at 1 µM,PIK3C2A (PI3K-C2 alpha); read-out: % Inhibition Point 1,2%
same,inhibition at 1 µM,PIK3C2A (PI3K-C2 alpha); read-out: % Inhibition Point 2,3.23%
same,inhibition at 1 µM,PIK3C2A (PI3K-C2 alpha); read-out: % Inhibition mean,2.57%
same,inhibition at 1 µM,PIK3C3 (hVPS34); read-out: % Inhibition Point 1,3.28%
same,inhibition at 1 µM,PIK3C3 (hVPS34); read-out: % Inhibition Point 2,7.6%
same,inhibition at 1 µM,PIK3C3 (hVPS34); read-out: % Inhibition mean,5.44%
same,inhibition at 1 µM,[1]; read-out: % Inhibition Point 1,11%
same,inhibition at 1 µM,[1]; read-out: % Inhibition Point 2,-5%
same,inhibition at 1 µM,[1]; read-out: % Inhibition mean,2.81%
